Assay results reported in ChEMBL document CHEMBL1201862, “PubChem BioAssay data set” (2004).
Calls of active or inactive are those of the source.

What was measured:
[1] = HEK293T cytotoxicity, dose response, cytotoxicity control for miR-122 modulator project, cell-based, inhibitor set, cherry-pick, set 2 (AID 720697); format: functional
[2] = miR-122 activators in hepatoma reporter cells, dose response, cell-based, Huh7 psiCHECK-miR122, Renilla luciferase, cherry-picked (AID 651956); format: functional;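 note: huh7 hepatoma cells stably carrying a psiCHECK-2 miR-122 sensor plasmid; renilla luciferase signal reporting endogenous miR-122 activity after 48 h compound exposure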
[3] = molecular target: T1, Methionyl-tRNA synthetase, putative (Trypanosoma brucei brucei, UniProt Q38C91); format: functional, Trypanosoma brucei brucei strain 927/4 GUTat10.1
T1 sequence (Q38C91 whole entry): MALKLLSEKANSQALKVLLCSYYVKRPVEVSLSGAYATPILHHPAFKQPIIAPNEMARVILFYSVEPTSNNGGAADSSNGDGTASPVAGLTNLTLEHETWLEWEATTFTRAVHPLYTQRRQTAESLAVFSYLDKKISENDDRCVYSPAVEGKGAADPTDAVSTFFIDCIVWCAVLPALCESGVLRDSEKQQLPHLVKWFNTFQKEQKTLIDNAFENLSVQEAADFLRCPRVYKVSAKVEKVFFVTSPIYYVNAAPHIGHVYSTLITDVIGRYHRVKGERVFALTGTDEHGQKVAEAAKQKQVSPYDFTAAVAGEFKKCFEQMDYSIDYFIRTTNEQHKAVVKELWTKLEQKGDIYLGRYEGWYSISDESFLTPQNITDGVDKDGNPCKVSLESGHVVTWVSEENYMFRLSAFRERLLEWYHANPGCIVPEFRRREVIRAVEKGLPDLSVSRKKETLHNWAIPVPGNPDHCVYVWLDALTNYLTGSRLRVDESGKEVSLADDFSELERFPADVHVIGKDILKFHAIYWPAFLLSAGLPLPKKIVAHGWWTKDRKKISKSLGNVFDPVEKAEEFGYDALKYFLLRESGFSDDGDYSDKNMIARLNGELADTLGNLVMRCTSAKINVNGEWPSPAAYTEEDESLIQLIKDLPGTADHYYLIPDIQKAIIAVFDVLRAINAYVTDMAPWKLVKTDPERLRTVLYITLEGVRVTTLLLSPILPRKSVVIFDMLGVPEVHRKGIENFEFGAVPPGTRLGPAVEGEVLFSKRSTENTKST

[4] = Counterscreen for inhibitors of Trypanosoma brucei methionyl tRNA synthetase (MetRS): Luminescence-based cell-based high throughput dose response assay to identify compounds that are cytotoxic to Jurkat human T lymphocyte cells.; format: functional
[5] = molecular target: T1, Methionyl-tRNA synthetase, putative; format: functional, Trypanosoma brucei brucei strain 927/4 GUTat10.1; remark: listed apart in the source
[6] = molecular target: ADP-ribosylation factor GTPase-activating protein 1 (Rattus norvegicus, UniProt Q62848); assay: Fluorescence polarization-based biochemical high throughput dose response screening assay to identify inhibitors of ADP-ribosylation factor GTPase activating protein 1 (ARFGAP1).; format: functional
Chain of ADP-ribosylation factor GTPase-activating protein 1 (Q62848 whole entry): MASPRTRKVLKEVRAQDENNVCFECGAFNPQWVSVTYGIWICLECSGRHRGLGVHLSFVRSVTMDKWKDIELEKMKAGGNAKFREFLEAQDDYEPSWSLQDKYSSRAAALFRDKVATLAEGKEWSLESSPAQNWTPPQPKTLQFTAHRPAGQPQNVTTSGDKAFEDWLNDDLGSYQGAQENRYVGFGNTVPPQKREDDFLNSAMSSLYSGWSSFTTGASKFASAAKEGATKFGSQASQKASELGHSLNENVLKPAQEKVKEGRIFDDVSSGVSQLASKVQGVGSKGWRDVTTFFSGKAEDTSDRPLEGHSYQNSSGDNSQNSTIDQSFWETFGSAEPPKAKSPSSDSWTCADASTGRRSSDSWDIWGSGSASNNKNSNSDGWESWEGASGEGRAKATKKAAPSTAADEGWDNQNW

[7] = Luminescence Cell-Based Dose Retest to Confirm Inhibitors of Cancer Stem Cells. [Related pubchem assays (depositor defined):AID2717, AID2721]; format: functional; details: Homo sapiens
[8] = HIV-1 Env-mediated cell fusion inhibitors, dose response, CCR5-tropic Env (AID 2279); format: functional
[9] = molecular target: Induced myeloid leukemia cell differentiation protein Mcl-1 (Homo sapiens, UniProt Q07820); format: functional
Chain of Induced myeloid leukemia cell differentiation protein Mcl-1 (Q07820 whole entry): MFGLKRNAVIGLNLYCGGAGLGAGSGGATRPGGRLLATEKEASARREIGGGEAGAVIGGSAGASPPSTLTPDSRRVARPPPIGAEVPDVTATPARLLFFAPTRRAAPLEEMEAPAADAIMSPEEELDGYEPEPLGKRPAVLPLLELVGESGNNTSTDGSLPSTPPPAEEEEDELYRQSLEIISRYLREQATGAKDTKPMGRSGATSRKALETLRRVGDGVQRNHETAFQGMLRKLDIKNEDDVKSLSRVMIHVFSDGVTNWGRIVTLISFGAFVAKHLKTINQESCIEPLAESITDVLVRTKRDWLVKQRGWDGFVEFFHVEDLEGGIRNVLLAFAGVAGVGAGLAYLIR

[10] = HEp-2 cell cytotoxicity, dose response, cytotoxicity control for RSV inhibitor project, HTS (AID 2410); format: functional; details: human respiratory syncytial virus
[11] = molecular target: DNA (cytosine-5)-methyltransferase 1 (Homo sapiens, UniProt P26358); assay: DNMT1 methyltransferase inhibitors, confirmation, biochemical, fluorescent molecular beacon (AID 602386); format: functional
Chain of DNA (cytosine-5)-methyltransferase 1 (P26358 whole entry): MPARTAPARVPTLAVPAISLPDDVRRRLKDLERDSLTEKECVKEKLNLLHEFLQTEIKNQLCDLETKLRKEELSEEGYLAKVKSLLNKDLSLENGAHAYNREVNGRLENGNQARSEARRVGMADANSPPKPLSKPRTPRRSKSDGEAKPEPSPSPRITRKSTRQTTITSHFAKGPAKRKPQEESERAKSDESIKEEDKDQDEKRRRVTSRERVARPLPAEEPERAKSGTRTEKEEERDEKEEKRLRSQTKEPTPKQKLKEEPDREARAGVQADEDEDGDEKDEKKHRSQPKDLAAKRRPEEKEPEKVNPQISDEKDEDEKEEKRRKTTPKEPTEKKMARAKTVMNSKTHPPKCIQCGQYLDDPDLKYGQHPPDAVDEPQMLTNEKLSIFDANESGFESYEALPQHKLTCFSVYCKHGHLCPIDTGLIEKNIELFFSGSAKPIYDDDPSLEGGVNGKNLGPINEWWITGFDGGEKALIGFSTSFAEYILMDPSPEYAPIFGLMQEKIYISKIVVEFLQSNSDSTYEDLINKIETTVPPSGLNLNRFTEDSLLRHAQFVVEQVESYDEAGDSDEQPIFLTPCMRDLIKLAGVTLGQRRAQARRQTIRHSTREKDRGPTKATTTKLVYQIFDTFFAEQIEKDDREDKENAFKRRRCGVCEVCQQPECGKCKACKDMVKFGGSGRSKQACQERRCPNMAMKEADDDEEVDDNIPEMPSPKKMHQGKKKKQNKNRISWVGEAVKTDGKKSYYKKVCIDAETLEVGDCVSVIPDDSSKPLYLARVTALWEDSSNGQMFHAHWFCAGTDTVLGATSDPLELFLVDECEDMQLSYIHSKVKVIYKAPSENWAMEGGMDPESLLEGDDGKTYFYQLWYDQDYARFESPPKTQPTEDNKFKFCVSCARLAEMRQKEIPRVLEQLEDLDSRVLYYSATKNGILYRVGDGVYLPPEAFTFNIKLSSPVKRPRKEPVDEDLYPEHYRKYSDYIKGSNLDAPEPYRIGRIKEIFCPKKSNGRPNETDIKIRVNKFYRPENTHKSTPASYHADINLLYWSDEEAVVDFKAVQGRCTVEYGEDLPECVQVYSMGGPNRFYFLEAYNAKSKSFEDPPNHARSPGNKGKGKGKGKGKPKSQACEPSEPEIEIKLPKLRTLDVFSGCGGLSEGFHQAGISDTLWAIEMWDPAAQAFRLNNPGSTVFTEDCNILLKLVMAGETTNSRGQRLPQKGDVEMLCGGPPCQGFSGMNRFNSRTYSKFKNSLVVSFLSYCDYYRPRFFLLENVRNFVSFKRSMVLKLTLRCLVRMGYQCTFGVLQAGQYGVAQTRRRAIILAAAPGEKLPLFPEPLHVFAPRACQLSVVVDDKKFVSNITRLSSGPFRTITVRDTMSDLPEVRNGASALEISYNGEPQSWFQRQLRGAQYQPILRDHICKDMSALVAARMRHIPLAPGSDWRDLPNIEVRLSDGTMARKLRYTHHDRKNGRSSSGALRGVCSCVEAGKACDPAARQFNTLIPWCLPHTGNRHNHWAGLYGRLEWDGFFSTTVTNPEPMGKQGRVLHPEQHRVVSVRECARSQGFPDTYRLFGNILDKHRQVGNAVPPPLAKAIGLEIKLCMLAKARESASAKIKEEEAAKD

[12] = NIH-3T3 fibroblast cytotoxicity, dose response, cytotoxicity control, cell-based, fluorescence, Alamar Blue, secondary assay (AID 2327); format: functional;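 note: NIH-3T3 mouse fibroblasts cultured with fluconazole at 8 µg/mL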
Protein Wnt-3a = Protein Wnt-3a (Mus musculus, UniProt P27467); assay: Wnt3a-driven reporter signaling inhibition, dose response, selectivity assay for Gli-SUFU antagonist project, Wnt-LIGHT cells, luminescence (AID 651570); format: functional; details: read-out: IC50_Mean;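 note: Wnt-LIGHT reporter cells stimulated with conditioned medium from Wnt3a-producing cells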
Chain of Protein Wnt-3a (P27467 whole entry): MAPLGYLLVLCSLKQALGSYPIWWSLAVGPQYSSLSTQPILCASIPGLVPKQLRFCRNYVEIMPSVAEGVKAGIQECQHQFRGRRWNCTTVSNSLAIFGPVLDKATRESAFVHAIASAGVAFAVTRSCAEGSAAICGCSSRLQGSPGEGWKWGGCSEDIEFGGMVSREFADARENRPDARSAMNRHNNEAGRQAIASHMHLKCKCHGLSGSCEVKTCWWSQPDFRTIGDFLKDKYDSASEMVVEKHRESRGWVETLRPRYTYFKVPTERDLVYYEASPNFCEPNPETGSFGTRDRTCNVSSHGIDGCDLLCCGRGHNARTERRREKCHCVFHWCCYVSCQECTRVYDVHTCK

[13] = C. albicans growth with fluconazole, confirmation, fluorescence, retest (AID 2467); format: functional, cell-based
[14] = molecular target: T2, Sentrin-specific protease 8 (Homo sapiens, UniProt Q96LD8); format: functional
T2 sequence (Q96LD8 whole entry): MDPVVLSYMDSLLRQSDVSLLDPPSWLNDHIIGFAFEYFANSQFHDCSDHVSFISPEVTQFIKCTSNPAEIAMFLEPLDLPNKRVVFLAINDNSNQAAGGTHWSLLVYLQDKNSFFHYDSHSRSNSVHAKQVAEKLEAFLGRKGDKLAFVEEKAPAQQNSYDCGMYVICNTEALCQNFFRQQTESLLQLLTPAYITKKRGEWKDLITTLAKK

[15] = molecular target: T2, Sentrin-specific protease 8; format: functional; remark: listed apart in the source
[16] = molecular target: Photoreceptor-specific nuclear receptor (Homo sapiens, UniProt Q9Y5X4); format: functional, cell-based;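 note: CHO-S cells with Gal4-NCOR and VP16-NR2E3 two-hybrid luciferase reporter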
Chain of Photoreceptor-specific nuclear receptor (Q9Y5X4 whole entry, the tested form may be a part): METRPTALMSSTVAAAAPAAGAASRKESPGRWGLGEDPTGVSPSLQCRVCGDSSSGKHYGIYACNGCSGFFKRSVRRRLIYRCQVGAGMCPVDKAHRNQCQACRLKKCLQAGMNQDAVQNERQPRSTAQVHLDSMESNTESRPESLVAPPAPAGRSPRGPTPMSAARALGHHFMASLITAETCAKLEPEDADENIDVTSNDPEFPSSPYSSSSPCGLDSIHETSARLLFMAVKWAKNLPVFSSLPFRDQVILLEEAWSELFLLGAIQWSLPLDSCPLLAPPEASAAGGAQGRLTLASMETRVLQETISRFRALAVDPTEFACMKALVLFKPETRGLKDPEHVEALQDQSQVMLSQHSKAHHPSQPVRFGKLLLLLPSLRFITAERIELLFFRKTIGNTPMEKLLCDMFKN

[17] = cytotoxicity in HEK-293T cells, dose response, cytotoxicity control for TCR NF-kB inhibitor project, luminescence, T-cell screen hits (AID 489026); format: functional, cell-based;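 note: cells exposed to compound about 14 hours before the viability readout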
[18] = molecular target: Hepatocyte nuclear factor 4-alpha (Homo sapiens, UniProt P41235); format: functional, cell-based;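 note: biochemical luminescence-based dose-response counterscreen measuring inhibition of HNF4 dimerization, run alongside a screen for blockers of ABHD5–perilipin-5 interaction; split luciferase complementation of HNF4 fusion proteins in cell lysate measuring dimerization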
Chain of Hepatocyte nuclear factor 4-alpha (P41235 whole entry, the tested form may be a part): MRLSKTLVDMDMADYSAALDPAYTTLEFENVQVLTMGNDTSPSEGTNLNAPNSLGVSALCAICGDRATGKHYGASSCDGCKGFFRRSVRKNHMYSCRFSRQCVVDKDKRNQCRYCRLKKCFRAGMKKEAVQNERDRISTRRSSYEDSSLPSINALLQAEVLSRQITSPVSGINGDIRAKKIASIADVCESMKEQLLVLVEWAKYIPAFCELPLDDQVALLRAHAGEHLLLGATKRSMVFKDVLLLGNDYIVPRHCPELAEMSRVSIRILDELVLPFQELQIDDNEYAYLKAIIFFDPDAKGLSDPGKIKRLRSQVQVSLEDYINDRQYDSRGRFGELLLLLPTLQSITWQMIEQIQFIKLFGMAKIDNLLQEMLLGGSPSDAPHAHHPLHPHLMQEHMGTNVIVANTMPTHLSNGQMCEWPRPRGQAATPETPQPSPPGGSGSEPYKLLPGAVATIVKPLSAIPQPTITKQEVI

[19] = cytotoxicity toward NIH3T3 fibroblasts, dose response, counter-screen, cell-based, ATP luminescence, mouse fibroblasts (AID 2010); format: functional;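 note: cells exposed to compound for about 90 hours before reading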
[20] = inhibitors of intracellular T. cruzi replication, confirmation, NIH3T3 host cells, beta-gal luminescence (AID 2044); format: functional, cell-based;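 note: intracellular parasites grown in NIH/3T3 mouse fibroblasts as host cells; luminescent beta-galactosidase reporter signal from transgenic T. cruzi replicating inside host cells; inhibitors lower the luminescence signal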
[21] = molecular target: T3, Carboxy-terminal domain RNA polymerase II polypeptide A small phosphatase 1 (Homo sapiens, UniProt Q9GZU7); assay: inhibitors of CTDSP1, concentration-response testing, biochemical assay, absorbance-based, actives from ultra-high-throughput screening (AID 540297); format: functional
T3 sequence (Q9GZU7 whole entry): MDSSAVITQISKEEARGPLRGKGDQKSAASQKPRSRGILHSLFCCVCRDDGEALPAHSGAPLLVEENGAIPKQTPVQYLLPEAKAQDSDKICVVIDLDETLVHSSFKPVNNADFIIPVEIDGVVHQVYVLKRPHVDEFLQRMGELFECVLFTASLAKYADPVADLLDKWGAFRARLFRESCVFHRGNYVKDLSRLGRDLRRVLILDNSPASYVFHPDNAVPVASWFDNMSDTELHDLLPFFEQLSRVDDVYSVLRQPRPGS

[22] = molecular target: T4, Histone-lysine N-methyltransferase NSD2 (Homo sapiens, UniProt O96028); format: biochemical
T4 sequence (O96028 whole entry): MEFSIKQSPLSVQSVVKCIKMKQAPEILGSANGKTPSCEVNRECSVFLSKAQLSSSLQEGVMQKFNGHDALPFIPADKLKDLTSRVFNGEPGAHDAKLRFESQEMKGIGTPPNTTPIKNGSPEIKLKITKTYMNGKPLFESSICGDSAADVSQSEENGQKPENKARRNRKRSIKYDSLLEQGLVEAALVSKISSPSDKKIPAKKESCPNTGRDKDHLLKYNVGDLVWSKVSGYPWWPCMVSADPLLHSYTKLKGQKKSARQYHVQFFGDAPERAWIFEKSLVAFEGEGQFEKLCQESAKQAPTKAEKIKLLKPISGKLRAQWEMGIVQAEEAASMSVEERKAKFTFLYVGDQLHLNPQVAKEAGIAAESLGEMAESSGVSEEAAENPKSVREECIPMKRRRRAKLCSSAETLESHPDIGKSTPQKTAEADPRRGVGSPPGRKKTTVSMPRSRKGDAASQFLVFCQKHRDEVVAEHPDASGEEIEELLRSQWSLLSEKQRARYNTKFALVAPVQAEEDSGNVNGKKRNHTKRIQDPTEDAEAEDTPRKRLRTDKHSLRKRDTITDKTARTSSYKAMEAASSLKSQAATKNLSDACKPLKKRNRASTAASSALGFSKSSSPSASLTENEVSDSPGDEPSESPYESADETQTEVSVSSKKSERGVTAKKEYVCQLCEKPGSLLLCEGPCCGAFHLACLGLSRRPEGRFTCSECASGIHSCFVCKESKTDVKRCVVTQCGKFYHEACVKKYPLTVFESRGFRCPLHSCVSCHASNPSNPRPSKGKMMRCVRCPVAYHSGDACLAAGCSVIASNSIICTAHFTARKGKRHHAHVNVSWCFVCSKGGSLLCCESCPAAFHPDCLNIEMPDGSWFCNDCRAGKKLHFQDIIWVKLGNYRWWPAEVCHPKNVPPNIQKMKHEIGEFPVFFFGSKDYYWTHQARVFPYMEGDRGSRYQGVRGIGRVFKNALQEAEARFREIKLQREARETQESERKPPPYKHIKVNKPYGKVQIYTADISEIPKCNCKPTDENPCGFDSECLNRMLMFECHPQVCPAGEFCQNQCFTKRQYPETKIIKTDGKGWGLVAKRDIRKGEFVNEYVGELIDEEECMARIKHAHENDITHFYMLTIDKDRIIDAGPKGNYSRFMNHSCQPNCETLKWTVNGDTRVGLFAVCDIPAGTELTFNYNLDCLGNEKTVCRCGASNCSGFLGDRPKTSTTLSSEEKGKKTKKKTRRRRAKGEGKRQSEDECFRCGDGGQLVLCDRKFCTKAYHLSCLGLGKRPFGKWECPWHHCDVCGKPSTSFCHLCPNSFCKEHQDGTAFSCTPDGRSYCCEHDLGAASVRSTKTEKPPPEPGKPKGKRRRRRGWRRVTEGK

[23] = molecular target: T5, Zinc finger protein mex-5 (Caenorhabditis elegans, UniProt Q9XUB2); assay: MEX-5/TCR-2 RNA interaction inhibitors, dose response, biochemical, C. elegans, fluorescence polarization (AID 1960)
T5 sequence (Q9XUB2 whole entry): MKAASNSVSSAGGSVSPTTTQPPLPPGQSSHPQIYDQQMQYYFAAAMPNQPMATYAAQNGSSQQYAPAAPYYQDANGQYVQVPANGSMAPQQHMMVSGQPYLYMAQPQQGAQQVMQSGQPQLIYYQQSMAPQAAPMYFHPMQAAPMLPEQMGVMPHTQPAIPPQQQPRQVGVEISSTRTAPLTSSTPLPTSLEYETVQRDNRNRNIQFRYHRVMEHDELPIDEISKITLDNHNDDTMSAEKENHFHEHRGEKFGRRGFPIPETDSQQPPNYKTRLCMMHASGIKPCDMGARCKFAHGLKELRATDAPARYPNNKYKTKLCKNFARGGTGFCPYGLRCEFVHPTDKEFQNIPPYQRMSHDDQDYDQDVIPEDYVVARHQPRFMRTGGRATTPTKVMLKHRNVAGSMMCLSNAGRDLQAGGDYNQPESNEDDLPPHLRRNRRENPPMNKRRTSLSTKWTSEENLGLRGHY

[24] = molecular target: T6, RNA-binding protein pos-1 (Caenorhabditis elegans, UniProt G5EF15); assay: inhibitors of POS-1/mex-3 RNA binding, dose response, biochemical, fluorescence polarization (AID 1964);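 note: purified POS-1 fused to maltose binding protein made in E. coli; potency of compounds blocking POS-1 binding to fluorescent RNA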
T6 sequence (G5EF15 whole entry): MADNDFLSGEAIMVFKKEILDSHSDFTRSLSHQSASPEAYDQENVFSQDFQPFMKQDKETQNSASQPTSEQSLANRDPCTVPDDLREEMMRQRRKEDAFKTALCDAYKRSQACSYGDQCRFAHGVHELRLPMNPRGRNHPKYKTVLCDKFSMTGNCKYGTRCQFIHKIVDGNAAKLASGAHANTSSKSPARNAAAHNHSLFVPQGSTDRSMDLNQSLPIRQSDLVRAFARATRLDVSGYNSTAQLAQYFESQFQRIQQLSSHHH

[25] = molecular target: T7, Mitochondrial peptide methionine sulfoxide reductase (Bos taurus, UniProt P54149); format: functional;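 note: absorbance read-out, biochemical high-throughput dose-response screen for MsrA inhibitors, confirmatory; recombinant bovine MsrA coupled to E. coli TrxB with NADPH and selenocystamine; potency is for inhibitors of MsrA activity on DMSO substrate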
T7 sequence (P54149 whole entry): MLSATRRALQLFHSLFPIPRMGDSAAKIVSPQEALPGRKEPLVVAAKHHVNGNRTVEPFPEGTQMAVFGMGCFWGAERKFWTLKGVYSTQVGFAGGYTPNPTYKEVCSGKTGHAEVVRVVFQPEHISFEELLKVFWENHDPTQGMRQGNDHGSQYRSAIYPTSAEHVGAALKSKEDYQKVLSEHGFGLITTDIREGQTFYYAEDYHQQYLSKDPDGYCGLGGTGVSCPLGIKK

## Cc1cc(C(=O)Nc2ccc3c(c2)C(=O)N(C)[C@@H]2CC[C@H](CC(=O)N[C@@H](C)c4ccccc4)O[C@H]2CO3)no1
[1]
  AC50: 1.12 µM (active)
[2]
  AC50: 57.6 µM (active)

## Cc1nnc(NC(=O)CSc2n[nH]c3c4cc(Br)ccc4nc-3n2)s1
[3]
  IC50: 3.87 µM (active)
[4]
  IC50: 83.3 µM (inactive)
[5]
  IC50: 1.36 µM (active)

## COc1ccc(-n2nc3c(N4CCC(C(=O)NCc5ccccc5)CC4)nnc(C)c3c2C)cc1
[6]
  IC50: 40.6 µM (inactive)

## O=C(O)CCCCCN1C(=O)/C(=C\c2cn(-c3ccccc3)nc2-c2cccs2)SC1=S
[7]
  AC50: 3.54 µM (active)
[8]
  IC50: 37.4 µM (active)
[9]
  IC50: 2.31 µM (active)
[10]
  CC50: 12 µM (active)
[11]
  IC50: 6.97 µM (active)

## Cc1c(CCOC(=O)C23CC4CC(CC(C)(C4)C2)C3)sc[n+]1Cc1ccccc1
[12]
  EC50: > 150 µM (inactive)
Protein Wnt-3a
  IC50: 32 µM (inactive)
[13]
  EC50: 2.08 µM (active)

## O=C1NC(=O)C(Nc2ccc(Cl)c(Cl)c2)C(=O)N1
[14]
  IC50: 10.9 µM (active)
[15]
  IC50: 8.82 µM (active)

## COc1cc2nc(CN3CC=C(c4ccccc4)CC3)nc(O)c2cc1OC
[16]
  IC50: 0.0655 µM (active)
[7]
  AC50: 0.609 µM (active)
[17]
  IC50: > 80 µM (inactive)

## O=C(Nc1ccc2c(c1)OCCO2)C(c1ccnc2ccccc12)n1c(=O)c(-c2ccco2)nc2ccccc21 (centres undefined)
[18]
  IC50: 18.9 µM (inactive)

## COc1ccccc1CCNC(=O)c1cc(-c2ccncc2)nc2ccc(Br)cc12
[19]
  EC50: > 60 µM (not active)
Protein Wnt-3a
  IC50: 10.9 µM (active)
[20]
  EC50: 0.874 µM (active)

## CCOc1cccc(N2C(=O)/C(=C/c3ccco3)C(=O)NC2=S)c1
[21]
  IC50: 1.6 µM (active)
[22]
  AC50: 1.04 µM (active)
[23]
  EC50: > 300 µM (not active)
[11]
  IC50: 4.24 µM (active)
[24]
  EC50: > 300 µM (not active)

## COc1ccc(/C=N/n2c(S)nnc2C2CCCCC2)c(OC)c1
[25]
  IC50: 155 µM (inactive)
